Where two headings read alike, the source gives them in different places.
Tests used:
human EP3 receptor = molecular target: T1, human EP3 receptor (Homo sapiens, UniProt P43115); assay: Radioligand ([3H]PGE2) competition displacement binding, human EP3 receptor membranes; conditions: [3H]PGE2 displacement, read-out: pKi EP3 (converted)
T1 construct: expressed in transfected cells
T1 sequence (P43115 1-390): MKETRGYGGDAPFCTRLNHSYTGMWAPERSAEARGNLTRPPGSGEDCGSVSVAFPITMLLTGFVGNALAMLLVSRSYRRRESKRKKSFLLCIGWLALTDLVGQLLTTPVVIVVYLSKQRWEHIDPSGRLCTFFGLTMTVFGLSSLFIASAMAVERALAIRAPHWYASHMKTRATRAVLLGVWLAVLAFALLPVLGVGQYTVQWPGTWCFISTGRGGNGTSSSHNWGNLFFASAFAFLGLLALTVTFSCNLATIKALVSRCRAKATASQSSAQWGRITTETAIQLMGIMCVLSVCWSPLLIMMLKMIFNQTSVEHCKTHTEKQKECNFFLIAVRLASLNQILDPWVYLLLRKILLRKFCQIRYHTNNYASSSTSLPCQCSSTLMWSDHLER
Method: (§1) Membranes were prepared from cells stably transfected with human EP receptor cDNA. In brief, cells were cultured to confluency, scraped from culture flasks, and centrifuged (800 g, 8 minutes, 4° C.). Cells were twice washed in ice cold homogenisation buffer containing 10 mMTris-HCl, 1 mM EDTA.2Na, 250 mM sucrose, 1 mM PMSF, 0.3 mM indomethacin, pH 7.4, homogenised and re-centrifuged as before. The supernatant was stored on ice and pellets re-homogenised and re-spun. Supernatants were pooled and centrifuged at 40000 g, 10 minutes, 4° C. Resultant membrane pellets were stored at −80° C. until use.
(§2) For assay, membranes expressing human EP4, EP3, EP2 or EP1 receptors were incubated in Millipore (MHVBN45) plates containing assay buffer, radiolabelled [^3H]PGE2 and 0.1 to 10 000 nM concentrations of compounds. Incubations were performed at suitable temperatures and for suitable times to allow equilibrium to be reached. Non-specific binding was determined in the presence of 10 uM PGE2. Bound and free radiolabel was separated by vacuum manifold filtration using appropriate wash buffers, and bound radiolabel was determined by scintillation counting. Constituents of each of the buffers are included in table 4 below.
(§3) The affinity or pKi of each compound for each receptor was calculated from the concentration causing 50% radioligand displacement (IC50) using the Cheng-Prusoff equation: [formula]
(§4) This approach follows that set out in Kenakin, T. P., Pharmacologic analysis of drug receptor interaction. Raven Press, New York, 2nd edition.

human EP2 receptor [1] = molecular target: T2, human EP2 receptor (Homo sapiens, UniProt P43116); assay: Radioligand ([3H]PGE2) competition displacement binding, human EP2 receptor membranes; conditions: human EP2 membranes, [3H]PGE2 displacement, Cheng-Prusoff; mean of 4 experiments; read-out: pKi EP2 (converted)
T2 construct: expressed in transfected cells; host or cells: HEK cells (HEK-EP2)
Method: as §1, §2, §3, §4

human EP2 receptor [2] = molecular target: T2, human EP2 receptor; assay: cAMP production in HEK cells stably expressing the human EP2 receptor; assay type: cell-based; conditions: 15 min stimulation, 4 experiments, read-out: Mean EC50
Method: The following describes an in vitro assay to determine the effect of compounds on cyclase production, that is, to determine their functional efficacy at the EP2 receptor.
HEK cells stably expressing the human EP2 receptor were used for these assays. HEK-EP2 cells were cultured in 96-well, poly-L-lysine coated plates at a density of 50,000 cells/well, and grown to confluence in humidified […] at 37° C. Culture medium was DMEM supplemented with 10% foetal bovine serum, 100 U/ml penicillin, […], 2.5 µg/ml fungizone, 2 mM glutamine, 250 µg/ml geneticin and 200 µg/ml zeocin.
On reaching confluence, culture media was rinsed off using DMEM with no additions, before 175 µl assay buffer (DMEM containing 1 mM 3-isobutyl-1-methylxanthine and 3 µM indomethacin) was added to each well. This was allowed to incubate for 1 hr before the cells were stimulated with the test compounds (in triplicate) at final concentrations of 10^−9M to 10^−5M for 15 minutes. The assay was terminated by the addition of 25 µl 1M hydrochloric acid. Plates were then frozen for a minimum of 12 hours or until required for radioligand displacement assay.
Plates were thawed quickly at 37° C., and neutralised with 25 µl 1M sodium hydroxide. 30 µl of supernatant was transferred to 96-well Millipore (MAFNOB) plates coated with 0.1% Polyethylenimine. These supernatants were diluted by addition of 90[…]1 cAMP assay buffer (50 mM Tris, 5 mM EDTA, pH 7.0). A cAMP standard curve (10^−11M to 10^−5M) was constructed. 15 µl of 3′:5′-cAMP-dependent protein kinase (final concentration 8 µg/well), and 15 µl [^3H]-cAMP (final concentration 2 nM/well) were added to each well.
Plates were incubated on ice for 2 hours, before bound and free radiolabel were separated by vacuum filtration harvesting on the Millipore manifold, using ice cold water as the termination buffer. Filter plates were allowed to dry overnight, before addition of 50 µl Microscint. Radioactivity was determined using the Microbeta Trilux scintillation counter. cAMP accumulation was determined from the standard curve, and the values plotted as pmoles cAMP/well.

human EP4 receptor = molecular target: T3, human EP4 receptor (Homo sapiens, UniProt P35408); assay: Radioligand ([3H]PGE2) competition displacement binding, human EP4 receptor membranes; conditions: [3H]PGE2 displacement, read-out: pKi EP4 (converted)
T3 construct: expressed in transfected cells
Method: as §1, §2, §3, §4

lymphocyte proliferation = assay: Lymphocyte proliferation driven by immobilised anti-CD3 antibody; assay type: cell-based, human; conditions: inhibition of lymphocyte proliferation, 72 h, mean of three donors; for EC50: read-out: Mean EC50; for Mean Log (EC50): log scale
Description: (§5) Lymphocytes are mononuclear leukocytes, which participate in specific immune responses to foreign antigens and in the manifestation of auto-immune diseases. T lymphocytes produce IL-2, a key factor for lymphocyte activation and proliferation, in response to antigen stimulation via the CD3-T cell receptor complex and the pathway involved in this response is the NF-AT. […] A lymphocyte assay was designed to model this response and to determine the effect of test compound on IL-2 production by anti-CD3-stimulated T cells isolated from peripheral blood. This assay uses a sub-optimal dose of an anti-CD3 monoclonal antibody (OKT3, 25 ng/ml) immobilised to a 96-well plate to stimulate a T cell response. The level of IL-2 released into the cell culture supernatants was quantified using a standard sandwich ELISA. Similarly, other cytokines such as TNFα and IFN-γ can also be measured in the same assay.
(§6) Human peripheral blood mononuclear cells from healthy volunteers were isolated from whole blood by Ficoll-Hypaque density centrifugation and adherence to plastic. The non-adherent lymphocyte fraction was used to set up the lymphocyte assay and the adherent monocytes were then recovered by scraping and subsequently used in the monocyte assay.
For the measurement of lymphocyte proliferation driven by immobilised anti-CD3 monoclonal antibody, the assay was set up in the same way as for the measurement of IL-2 release, except that the cells were cultured for 72 hours in the presence or absence of test compounds. Four hours prior to the termination of the proliferation assay, a novel tetrazolium compound solution supplied by Promega in the format of Cell Proliferation Assay Kit was added to individual wells according to the manufacturer's instruction. The plate was then placed back in the incubator for the remaining 4 hours and the […] reaction was measured using a spectrophotometer at an absorbent wavelength of 490 nm (SpectraMax, Molecular Devices) according to the manufacturer's instruction.

[3] = test system: IL-2 production by OKT3 activated T cells; assay: Lymphocyte assay: IL-2 production by anti-CD3 (OKT3) stimulated T cells; assay type: cell-based, human; conditions: inhibition of IL-2 production, 24 h; for EC50: read-out: Mean EC50; for Mean Log (EC50): log scale
Description: as §5, §6
(§7) Lymphocytes were then seeded to a 96-well plate pre-coated with anti-CD3 monoclonal antibody (OKT3) at 25 ng/ml and immediately, the test compounds (Peak 1, mixture 1 acid; Peak 1, mixture 2 acid; AH-13205 racemate; PGE2) in appropriate dilutions were added to corresponding wells according to the experimental design. The plate was incubated for 24 hours at 37° C. with 5% CO2 in air and supernatants were recovered for ELISA analysis at the end of incubation period. The levels of IFN-γ was assessed by using the ProteoPlex 16 well human cytokine array assay kit according to the manufacturer's instruction.

[4] = test system: TNFα production by alveolar macrophages; assay: Alveolar macrophage assay: LPS-induced TNFα release; assay type: cell-based, human; conditions: inhibition of TNFα production, LPS 1 μg/ml, 24 h, mean of three donors
Method: Human lung parenchyma was cut into small pieces and perfused with ice-cold phosphate buffered saline (PBS) to remove contaminating blood and mucus. The tissues were then chopped with scissors in the presence of Minimum Essential Medium supplemented with penicillin, streptomycin, L-glutamine and DNase (0.25 mg/ml). The chopped tissues were shaken gently to dislodge the macrophages. A crude cell suspension was then obtained by the removal of the tissues with a sterile filter (150 μm pore size). The resulting cell suspension was spun and the cell pellet collected. Contaminating red blood cells were depleted with a red blood cell lysis buffer and the remaining cells washed twice with PBS by centrifugation. Alveolar macrophages were then purified from this cell preparation by using a positive selection method for CD14-molecule bearing cells using a VarioMac™ Separator and respective positive selection reagents and columns supplied by Miltenyi Biotec Ltd according to the manufacturer's instruction.
For the assay, alveolar macrophages were resuspended in complete culture medium consisting of RPMI1640 supplemented with 10% foetal calf serum, L-glutamine and antibiotics. The cells were then plated into 24 well plates (4×10^5 cell/well) and incubated overnight at 37° C. with 5% CO2 in air to allow cell adherence. The exhausted medium was then removed from the plates and the plates rinsed briefly with fresh medium before the addition of test compound solutions. The test compounds were incubated with the cells for 30 minutes before the addition of E. Coli LPS (1 μg/ml). The assay plates were incubated in a humidified incubator at 37° C. with 5% CO2 in air for 24 hours. The release of TNFα by the cells into the culture supernatants was quantified using an ELISA kit (DuoSet® human TNFα ELSIA Development System) supplied by R+D Systems (Europe) according to the manufacturer's instruction. Indomethacin at 3 μM was included in all treatments to inhibit the possible release of endogenous prostaglandin E2.

[5] = test system: TNFα production by lymphocytes; assay: Lymphocyte assay: TNFα production; assay type: cell-based, human; conditions: inhibition of TNFα production by lymphocytes, mean of three donors; for EC50: read-out: Mean EC50; for Mean Log (EC50): log scale
Description: as §5, §6, §7

[6] = test system: human myometrial smooth muscle; assay: Human myometrial activity: inhibition of electrical field stimulation (EFS) induced contractions; assay type: cell-based; conditions: at 10^-4M, n=7 donors
Method: The following describes an in vitro functional assay, using human myometrial smooth muscle, to determine the affinity of the test compounds at the EP2 receptor in human tissues.
Sections of human myometrium were prepared from samples of surgically removed uterus longitudinal myometrial muscle strips (2 mm wide by 10 mm long) were then cut and suspended between stainless steel hooks in organ chambers containing oxygenated (95% O2/5% CO2) Krebs solution at 37° C. The composition of the Krebs solution was as follows: NaCl (118.2 mM), KCl (4.69 mM), MgSO4.7H2O (1.18 mM), KH2PO4 (1.19 mM), glucose (11.1 mM), NaHCO3 (25.0 mM), CaCl2.6H2O (2.5 mM), indomethacin 3×10^−6M.
Tissues were placed under a tension equivalent to 25 mN and left overnight at room temperature. The following day the tissues were maintained at 37° C., washed and placed under a tension of 15 mN then allowed to equilibrate for a period of at least 30 minutes. Responses were recorded using isometric transducers coupled to an Apple Macintosh computer via a MacLab interface. After 60 minutes, the muscle sections of the human myometrium were stimulated electrically (15 ms pulse width, for 10 s every 100 s at 15V and 0.5-40 Hz) using parallel platinum wire electrodes and a Multistim D330 pulse stimulator. Upon electrical stimulation, the strips of human myometrial smooth muscle responded with a rapid contraction. Once the response to electrical stimulation had stabilised (stimulated responses differed by no more than 10%), the strips were exposed to increasing concentrations of test compounds (1×10^−7 to 1×10^−4M, incubated for at least 15 minutes at each concentration). At the end of the experiment, application of sodium nitroprusside (SNP, a nitric oxide donor that causes smooth muscle relaxation) (1×10^−4M) was used to produce a standard relaxatory response. To determine the affinity of the compounds, the concentration of test compound required to produce half-maximal effects (EC50) was calculated, as was the maximum response (calculated as a percentage of the standard response produced with SNP).

[7] = mean of four donors (FIG. 9, table 7)
[8] = mean of three to five donors (FIG. 10, table 8)

T2 sequence (P43116 whole entry): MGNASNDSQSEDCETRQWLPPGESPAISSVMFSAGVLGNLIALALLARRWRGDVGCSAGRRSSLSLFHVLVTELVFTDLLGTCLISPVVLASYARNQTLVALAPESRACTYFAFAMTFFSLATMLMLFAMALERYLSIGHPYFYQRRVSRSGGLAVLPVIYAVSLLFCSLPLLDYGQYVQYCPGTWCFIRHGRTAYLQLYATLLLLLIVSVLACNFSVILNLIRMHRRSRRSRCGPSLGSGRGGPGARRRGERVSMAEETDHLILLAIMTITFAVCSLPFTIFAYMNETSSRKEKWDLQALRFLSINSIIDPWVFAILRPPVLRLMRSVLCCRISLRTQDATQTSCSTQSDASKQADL
T3 sequence (P35408 whole entry): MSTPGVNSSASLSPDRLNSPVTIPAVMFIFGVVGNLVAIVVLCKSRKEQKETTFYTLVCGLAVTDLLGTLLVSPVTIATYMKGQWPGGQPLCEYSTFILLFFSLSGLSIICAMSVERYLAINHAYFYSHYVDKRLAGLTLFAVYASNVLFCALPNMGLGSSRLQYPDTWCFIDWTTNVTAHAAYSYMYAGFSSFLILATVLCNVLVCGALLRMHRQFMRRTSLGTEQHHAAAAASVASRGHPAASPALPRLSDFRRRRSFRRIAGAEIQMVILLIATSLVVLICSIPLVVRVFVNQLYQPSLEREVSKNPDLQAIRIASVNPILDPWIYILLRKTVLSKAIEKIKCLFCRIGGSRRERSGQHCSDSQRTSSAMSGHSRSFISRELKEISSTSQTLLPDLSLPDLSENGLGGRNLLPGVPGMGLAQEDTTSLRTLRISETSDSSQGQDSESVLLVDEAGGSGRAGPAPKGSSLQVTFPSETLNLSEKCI

Molecule | Ki (human EP3 receptor) | Ki (human EP2 receptor [1]) | EC50 (human EP2 receptor [2]) | Ki (human EP4 receptor) | EC50 (lymphocyte proliferation) | Mean Log (EC50) (lymphocyte proliferation) | EC50 [3, 8] | Mean Log (EC50) [3, 8] | EC50 [5] | Mean Log (EC50) [5] | further results
CCCCC[C@H](O)c1ccc([C@@H]2CCC(=O)[C@H]2CCCCCCC(=O)O)cc1 (single isomer, unassigned) [Peak 2, Mixture 1 acid] | 15.8 µM | 1.58 µM | 0.323 µM | 31.6 µM |  |  |  |  |  |  | 
CCCCC[C@@H](O)c1ccc([C@@H]2CCC(=O)[C@H]2CCCCCCC(=O)O)cc1 (single isomer, unassigned) [Peak 2, Mixture 2 acid] | 20 µM | 0.501 µM | 0.407 µM | 15.8 µM |  |  |  |  |  |  | 
CCCCC[C@H](O)/C=C/[C@H]1[C@H](O)CC(=O)[C@@H]1C/C=C\CCCC(=O)O [PGE2, prostaglandin E2] |  |  |  |  | 0.0258 µM | −7.589 | 0.0211 µM | −7.677 | 0.0107 µM | −7.971 | EC50 [3, 7]: 0.028 µM; Mean Log (EC50) [3, 7]: −7.554; EC50 ([4]; read-out: Mean EC50): 0.125 µM; Mean Log (EC50) ([4]; log scale): −6.904
CC(C)(C)NCC(O)c1cc(O)cc(O)c1 (stereo not shown) [terbutaline, reference compound] |  |  |  |  |  |  |  |  |  |  | % of the control EFS-induced contraction [6]: 98±5%
butaprost |  |  |  |  | 0.996 µM | −6.015 | 0.124 µM | −6.906 | 0.292 µM | −6.535 | 

From patent US20050209336A1, “EP2 receptor agonists” (priority 2003, published 2005)
